Source: patent US9795140B2, “Molecules having pesticidal utility, and intermediates, compositions, and processes, related thereto” (priority 2015, dated 2017)
Where two headings read alike, the source gives them in different places.

Tests used:
Assay type in all cases: in vivo
[1] = tested on: Cabbage Looper (Trichoplusia ni, TRIPNI); experiment: Bioassay on Cabbage Looper (CL), 128-well diet tray assay; settings: 168 h, read-out: CL % Control (or Mortality) rating
Protocol: (§1) Certain molecules disclosed in this document were tested against BAW and CL using procedures described in the following examples. In the reporting of the results, the “BAW & CL Rating Table” was used (See Table Section).
Bioassays on CL were conducted using a 128-well diet tray assay, one to five second instar CL larvae were placed in each well (3 mL) of the diet tray that had been previously filled with 1 mL of artificial diet to which 50 μg/cm^2 of the test molecule (dissolved in 50 μL of 90:10 acetone-water mixture) had been applied (to each of eight wells) and then allowed to dry. Trays were covered with a clear self-adhesive cover, vented to allow gas exchange, and held at 25° C., 14:10 light-dark for five to seven days. Percent mortality was recorded for the larvae in each well; activity in the eight wells was then averaged. The results are indicated in the table entitled “Table ABC: Biological Results” (See Table Section).

[2] = tested on: Yellow Fever Mosquito (Aedes aegypti, AEDSAE); experiment: Bioassay on Yellow Fever Mosquito (YFM) larvae, 96-well plate; settings: about 1 day-old larvae, room temperature, 3 days, scored on mortality
Protocol: Certain molecules disclosed in this document were tested against YFM using procedures described in the following paragraph. In the reporting of the results, the “GPA & YFM Rating Table” was used (See Table Section).
Master plates containing 400 μg of a molecule dissolved in 100 μL of dimethyl sulfoxide (DMSO) (equivalent to a 4000 ppm solution) are used. A master plate of assembled molecules contains 15 μL per well. To this plate, 135 μL of a 90:10 water/acetone mixture is added to each well. A robot is programmed to dispense 15 μL aspirations from the master plate into an empty 96-well shallow plate (“daughter” plate). There are 6 reps (“daughter” plates) created per master. The created “daughter” plates are then immediately infested with YFM larvae.
The day before plates are to be treated, mosquito eggs are placed in Millipore water containing liver powder to begin hatching (4 g. into 400 mL). After the “daughter” plates are created using the robot, they are infested with 220 μL of the liver powder/larval mosquito mixture (about 1 day-old larvae). After plates are infested with mosquito larvae, a non-evaporative lid is used to cover the plate to reduce drying. Plates are held at room temperature for 3 days prior to grading. After 3 days, each well is observed and scored based on mortality. The results are indicated in the table entitled “Table ABC: Biological Results” (See Table Section).

[3] = tested on: Beet Armyworm (Spodoptera exigua, LAPHEG); experiment: Bioassay on Beet Armyworm (BAW), 128-well diet tray assay; settings: 168 h, read-out: BAW % Control (or Mortality) rating
Protocol: as §1
Bioassays on BAW were conducted using a 128-well diet tray assay. One to five second instar BAW larvae were placed in each well (3 mL) of the diet tray that had been previously filled with approximately 1.5 mL of artificial diet to which 50 μg/cm^2 of the test molecule (dissolved in 50 μL of 90:10 acetone-water mixture) had been applied (to each of eight wells) and then allowed to dry. Trays were covered with a clear self-adhesive cover, vented to allow gas exchange, and held at 25° C., 14:10 light-dark for five to seven days. Percent mortality was recorded for the larvae in each well; activity in the eight wells was then averaged. The results are indicated in the table entitled “Table ABC: Biological Results” (See Table Section).

[4] = 50 μg/cm^2 on artificial diet, second instar larvae, 25° C., five to seven days, average of eight wells

| SMILES | mortality at 50 µg/cm2 [1] [%] | YFM % Control (or Mortality) rating [2] | mortality at 50 µg/cm2 [3] [%] | mortality at 50 µg/cm2 [1, 4] [%] | mortality at 50 µg/cm2 [3, 4] [%] |
| --- | --- | --- | --- | --- | --- |
| O=C(NCC(F)(F)F)c1cc(NC(=O)[C@H]2[C@H](c3ccc(F)c(F)c3)C2(Cl)Cl)ccc1Cl (relative stereo) [F108, 2-chloro-5-(trans-2,2-dichloro-3-(3,4-difluorophenyl)cyclopropane-1-carboxamido)-N-(2,2,2-trifluoroethyl)benzamide] | 50 to 100 | A (80-100) | 50 to 100 |  |  |
| O=C(NCC(F)(F)F)c1cc(NC(=O)[C@H]2[C@H](c3cc(Cl)cc(Cl)c3)C2(Cl)Cl)c(Cl)cc1Cl (relative stereo) [F100, trans-2,4-Dichloro-5-(2,2-dichloro-3-(3,5-dichlorophenyl)cyclopropane-1-carboxamido)-N-(2,2,2-trifluoroethyl)benzamide] |  | A (80-100) |  | 0 | 50 to 100 |
| O=C(NCC(F)(F)C(F)(F)C(F)(F)F)c1cc(NC(=O)[C@H]2[C@H](c3cc(Cl)cc(Cl)c3)C2(Cl)Cl)ccc1Cl (relative stereo) [F61, trans-2-Chloro-5-(2,2-dichloro-3-(3,5-dichlorophenyl)cyclopropane-1-carboxamido)-N-(2,2,3,3,4,4,4-heptafluorobutyl)benzamide] |  | D (No activity noticed in this bioassay) |  | 50 to 100 | 50 to 100 |
| C[S+]([O-])CCNC(=O)c1cc(NC(=O)[C@H]2[C@H](c3cc(Cl)cc(Cl)c3)C2(Cl)Cl)ccc1Cl (relative stereo) [F74, trans-2-chloro-5-(2,2-dichloro-3-(3,5-dichlorophenyl)cyclopropane-1-carboxamido)-N-(2-(methylsulfinyl)ethyl)benzamide] |  |  |  | 50 to 100 | 50 to 100 |
| COCCN(C)C(=O)c1cc(NC(=O)[C@H]2[C@H](c3cc(Cl)cc(Cl)c3)C2(Cl)Cl)ccc1Cl (relative stereo) [F67, trans-2-Chloro-5-(2,2-dichloro-3-(3,5-dichlorophenyl)cyclopropane-1-carboxamido)-N-(2-methoxyethyl)-N-methylbenzamide] |  | D (No activity noticed in this bioassay) |  | 50 to 100 | 50 to 100 |
| O=C(NCC(F)(F)F)c1cc(NC(=O)[C@H]2[C@H](c3cc(Cl)cc(Cl)c3)C2(Cl)Cl)cc(Cl)c1Cl (relative stereo) [F93, trans-2,3-Dichloro-5-(2,2-dichloro-3-(3,5-dichlorophenyl)cyclopropane-1-carboxamido)-N-(2,2,2-trifluoroethyl)benzamide] |  |  |  | 50 to 100 | 50 to 100 |
| O=C(NCCCl)c1cc(NC(=O)[C@H]2[C@H](c3cc(Cl)cc(Cl)c3)C2(Cl)Cl)ccc1Cl (relative stereo) [F51, trans-2-Chloro-N-(2-chloroethyl)-5-(2,2-dichloro-3-(3,5-dichlorophenyl)cyclopropane-1-carboxamido)benzamide] |  | B (More than 0-Less than 80) |  | 50 to 100 | 50 to 100 |
| O=C(NCCCCl)c1cc(NC(=O)[C@H]2[C@H](c3cc(Cl)cc(Cl)c3)C2(Cl)Cl)ccc1Cl (relative stereo) [F57, trans-2-Chloro-N-(3-chloropropyl)-5-(2,2-dichloro-3-(3,5-dichlorophenyl)cyclopropane-1-carboxamido)benzamide] |  | D (No activity noticed in this bioassay) |  | 50 to 100 | 50 to 100 |
| CN(CC1CC1)C(=O)c1cc(NC(=O)[C@H]2[C@H](c3cc(Cl)cc(Cl)c3)C2(Cl)Cl)ccc1Cl (relative stereo) [F69, trans-2-Chloro-N-(cyclopropylmethyl)-5-(2,2-dichloro-3-(3,5-dichlorophenyl)cyclopropane-1-carboxamido)-N-methylbenzamide] |  | D (No activity noticed in this bioassay) |  | 50 to 100 | 50 to 100 |
| CCCNC(=O)c1cc(NC(=O)[C@H]2[C@H](c3cc(Cl)cc(Cl)c3)C2(Cl)Cl)cc(Cl)c1Cl (relative stereo) [F95, trans-2,3-Dichloro-5-(2,2-dichloro-3-(3,5-dichlorophenyl)cyclopropane-1-carboxamido)-N-propylbenzamide] |  | A (80-100) |  | 50 to 100 | 50 to 100 |
| O=C(NCc1ccccn1)c1cc(NC(=O)[C@H]2[C@H](c3cc(Cl)cc(Cl)c3)C2(Cl)Cl)ccc1Cl (relative stereo) [F8, trans-2-Chloro-5-(2,2-dichloro-3-(3,5-dichlorophenyl)cyclopropane-1-carboxamido)-N-(pyridin-2-ylmethyl)benzamide] |  |  |  | 50 to 100 | 50 to 100 |
| CN(CC#N)C(=O)c1cc(NC(=O)[C@H]2[C@H](c3cc(Cl)cc(Cl)c3)C2(Cl)Cl)ccc1Cl (relative stereo) [F66, trans-2-Chloro-N-(cyanomethyl)-5-(2,2-dichloro-3-(3,5-dichlorophenyl)cyclopropane-1-carboxamido)-N-methylbenzamide] |  |  |  | 50 to 100 | 50 to 100 |
| C#CCN(C)C(=O)c1cc(NC(=O)[C@H]2[C@H](c3cc(Cl)cc(Cl)c3)C2(Cl)Cl)ccc1Cl (relative stereo) [F65, trans-2-Chloro-5-(2,2-dichloro-3-(3,5-dichlorophenyl)cyclopropane-1-carboxamido)-N-methyl-N-(prop-2-yn-1-yl)benzamide] |  |  |  | 50 to 100 | 50 to 100 |
| O=C(CNC(=O)c1cc(NC(=O)[C@H]2[C@H](c3cc(Cl)cc(Cl)c3)C2(Cl)Cl)ccc1Cl)NCC(F)(F)F (relative stereo) [F5, trans-2-Chloro-5-(2,2-dichloro-3-(3,5-dichlorophenyl)cyclopropane-1-carboxamido)-N-(2-oxo-2-((2,2,2-trifluoroethyl)amino)ethyl)benzamide] |  |  |  | 50 to 100 | 50 to 100 |
| CN(C)CCCCNC(=O)c1cc(NC(=O)[C@H]2[C@H](c3cc(Cl)cc(Cl)c3)C2(Cl)Cl)ccc1Cl (relative stereo) [F50, trans-2-Chloro-5-(2,2-dichloro-3-(3,5-dichlorophenyl)cyclopropane-1-carboxamido)-N-(4-(dimethylamino)butyl)benzamide] |  |  |  | 50 to 100 | 0 |
| C=CCONC(=O)c1cc(NC(=O)[C@H]2[C@H](c3cc(Cl)c(Cl)c(Cl)c3)C2(Cl)Cl)ccc1Cl (relative stereo) [F11, trans-N-(Allyloxy)-2-chloro-5-(2,2-dichloro-3-(3,4,5-trichlorophenyl)cyclopropane-1-carboxamido)benzamide] |  |  |  | 50 to 100 | 50 to 100 |
| C=CCONC(=O)c1cc(NC(=O)[C@H]2[C@H](c3cc(Cl)cc(Cl)c3)C2(Cl)Cl)ccc1Cl (relative stereo) [F10, trans-N-(Allyloxy)-2-chloro-5-(2,2-dichloro-3-(3,5-dichlorophenyl)cyclopropane-1-carboxamido)benzamide] |  |  |  | 50 to 100 | 50 to 100 |
| O=C(NCc1ccccn1)c1cc(NC(=O)[C@H]2[C@H](c3cc(Cl)c(Cl)c(Cl)c3)C2(Cl)Cl)ccc1Cl (relative stereo) [F9, trans-2-Chloro-5-(2,2-dichloro-3-(3,4,5-trichlorophenyl)cyclopropane-1-carboxamido)-N-(pyridin-2-ylmethyl)benzamide] |  |  |  | 50 to 100 | 50 to 100 |
| O=C(NCC(F)(F)F)c1cc(NC(=O)C2C(c3cc(F)c(F)c(F)c3)C2(Cl)Cl)ccc1Cl (stereo not drawn) [F127, 2-Chloro-5-cis-(2,2-dichloro-3-(3,4,5-trifluorophenyl)cyclopropane-1-carboxamido)-N-(2,2,2-trifluoroethyl)benzamide] |  | A (80-100) |  |  |  |
